# Patent US12473310B2, “Vitamin D3 phosphate and pharmaceutically acceptable salts thereof, pharmaceutical compositions comprising the compound and methods for preparing the compound” (King's College London, priority 2020, dated 2025)
# Structures can show the parent of a compound that is named as a salt.
# How the values were obtained:
# [1] = skin permeation and deposition, automated Franz diffusion cell (Example 5); assay type: in vitro ADME; details: PG formulation
# Experimental: For the final formulation, 61.5 mg of cholecalciferol phosphate acid in 4.1 mL hexane was added into 1.435 mL DURO-TAK 87-2051 (51.5 w/v %) with 16.4 μL α-tocopherol and 20.5 μL diethylene glycol monoethyl ether. Likewise, 120 mg of cholecalciferol phosphate disodium salt in 35.2 mL MeOH:water (10:1) was added to 1.336 mL of DURO-TAK 87-2051 (51.5 w/v %) in 56 mL ethyl acetate with 32 mg of α-tocopherol and 48 μL diethylene glycol monoethyl ether. Each formulation was spread evenly on the 10×10 cm patch tray and left overnight to dry completely. Following the complete drying of the solvents, the adhesive layer was covered by the M3 Release layer (SCOTCHPAK 9755, UK), compressed, and then cut using a 34 mm circular manual die cutter (SCP Super Cutting Press, UK).
# Subsequently, 1 mL aliquots were applied to the skin.
# The automated Franz diffusion cell was used to investigate the permeation of cholecalciferol, cholecalciferol phosphate salt and cholecalciferol phosphate acid through porcine skin. Fresh white adult porcine ears were obtained from a local butcher (Ginger Pig, UK). Any damaged ears were discarded. The ears were removed from the carcass after hair removal. […] The collected receiver fluid was analysed by HPLC methods described previously.
# At the end of the transport studies, the Franz cells were dismantled, and the donor solution was collected into bottles containing 10 mL of extraction fluid; MeOH for cholecalciferol, cholecalciferol phosphate acid and MeOH:water (90:10) for cholecalciferol phosphate salt, by wiping the surface of the skin and the inside of the donor compartment with two wet and then two dry cotton buds. […] Each collection was analysed by the HPLC method described above. Thus, the amount of each test agent on the surface of the skin, deposited in the skin, and passed into the receiver fluid was determined so that % mass recovery per cm^2 per skin could be calculated and drug deposition profiles could be obtained.
# [2] = solubility in donor solution and thermodynamic activity (Table 4); assay type: physicochemical; details: for solubility: organic solvent or mixture, thermodynamic from solid; for Thermodynamic activity: proposed concentration in permeation studies relative to solubility
# physchem = assay type: physicochemical; details: thermodynamic from solid, visual
# Experimental: An aliquot of 2.5 mg cholecalciferol and 2.5 mg cholecalciferol phosphate disodium salt prepared according to Example 1 were weighed into glass vials and 100 μL aliquots of the test solvents with different dielectric constants; water, MeOH:water (90:10), ethylene glycol, methanol (MeOH), propylene glycol (PG), ethanol (EtOH), poly(ethylene glycol) (PEG-400), and mineral oil were added until the sample was fully dissolved visually. A precise determination of the solubility was undertaken using high-performance liquid chromatography (HPLC). In the HPLC solubility studies an excess amount of cholecalciferol and cholecalciferol phosphate was added into 2 mL of each test solvent; water, MeOH:water (90:10), MeOH, and PG, EtOH and mineral oil. The solutions were left stirring overnight at room temperature, (RT), 22° C. The saturation of the solutions was confirmed by the visual appearance of crystals and the drug suspensions were filtered through 0.2 μm syringe filters, diluted, and the concentration of each sample was assessed using the HPLC method detailed below.
SMILES,fold higher transdermal permeation through the skin compared to cholecalciferol ([1]; phosphate disodium salt) [fold],"solubility ([2]; PG, read-out: Solubility in PG) [µg/mL]",Thermodynamic activity [2],solubility (physchem; organic solvent or mixture) [µg/mL],solubility (physchem; water) [µg/mL],"transdermal permeation through the skin ([1]; 1.0 mm porcine skin, 24 h)",solubility [2] [µg/mL],solubility (physchem; oil or lipid) [µg/mL]
"C=C1CC[C@H](OP(=O)(O)O)C/C1=C/C=C1\CCC[C@@]2(C)C1CC[C@@H]2[C@H](C)CCCC(C)C (stereo partly drawn) [Cholecalciferol phosphate disodium salt, cholecalciferol phosphate disodium salt]",~35.02,2500,1.0,< 2000,< 2500,,,
"C=C1CC[C@H](O)C/C1=C/C=C1\CCC[C@]2(C)[C@@H]([C@H](C)CCCC(C)C)CC[C@@H]12 [Cholecalciferol, cholecalciferol, reference compound]",,,0.8,,,"1,245.2 IU",3150,> 25000
